Reference: ChEMBL document CHEMBL5465560, “Selectivity Literature for EUbOPEN Chemogenomic Library” (2024)

What was measured:
[1] = biological target: Tyrosine-protein kinase CSK (Homo sapiens) (UniProt P41240); assay: Selectivity interaction (KinomeScan (DiscoverX)) EUB0001079a CSK; details: at 1 µM
[2] = biological target: T1, Inhibitor of nuclear factor kappa-B kinase subunit alpha (Homo sapiens) (UniProt O15111); assay: Selectivity interaction (Kinase panel (KiNativ target engagement assay in Jurkat cells)) EUB0001635a CHUK; type: cell-based; details: Selectivity number of off-targets 0.0, Selectivity number of targets 233.0, Source Knowledge https://www.sciencedirect.com/science/article/pii/S2451945619300674?via%3Dihub, at 1 µM
T1 sequence (whole entry): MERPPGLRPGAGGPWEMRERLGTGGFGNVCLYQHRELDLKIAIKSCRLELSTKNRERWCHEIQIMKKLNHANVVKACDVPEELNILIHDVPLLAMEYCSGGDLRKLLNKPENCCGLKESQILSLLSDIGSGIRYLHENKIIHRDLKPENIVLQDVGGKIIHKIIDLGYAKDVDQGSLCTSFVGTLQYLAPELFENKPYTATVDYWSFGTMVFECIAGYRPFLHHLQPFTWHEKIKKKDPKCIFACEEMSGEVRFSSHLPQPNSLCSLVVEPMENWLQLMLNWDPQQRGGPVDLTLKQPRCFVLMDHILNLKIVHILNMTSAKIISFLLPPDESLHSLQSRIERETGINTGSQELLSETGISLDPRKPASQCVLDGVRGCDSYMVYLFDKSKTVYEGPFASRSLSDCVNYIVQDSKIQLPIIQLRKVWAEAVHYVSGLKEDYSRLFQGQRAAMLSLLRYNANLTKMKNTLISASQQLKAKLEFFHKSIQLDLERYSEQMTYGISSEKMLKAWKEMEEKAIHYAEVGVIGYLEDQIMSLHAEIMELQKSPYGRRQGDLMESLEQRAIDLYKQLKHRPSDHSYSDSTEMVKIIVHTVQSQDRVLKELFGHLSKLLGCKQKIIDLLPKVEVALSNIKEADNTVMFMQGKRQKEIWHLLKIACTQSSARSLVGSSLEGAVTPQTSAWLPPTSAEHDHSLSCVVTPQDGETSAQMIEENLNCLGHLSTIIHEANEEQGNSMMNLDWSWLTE

[3] = biological target: Dual specificity mitogen-activated protein kinase kinase 1 (Homo sapiens, UniProt Q02750); assay: Selectivity interaction (Kinase panel (Invitrogen)) EUB0000639a MAP2K1; details: at 200 nM
[4] = biological target: T2, Serine/threonine-protein kinase Nek9 (Homo sapiens) (UniProt Q8TD19); assay: Selectivity interaction (ActivX KiNativ screen (kinase selectivity in THP-1 cell lysates)) EUB0000639a NEK9; type: subcellular; details: lysate, at 0.2 µM
T2 sequence (whole entry): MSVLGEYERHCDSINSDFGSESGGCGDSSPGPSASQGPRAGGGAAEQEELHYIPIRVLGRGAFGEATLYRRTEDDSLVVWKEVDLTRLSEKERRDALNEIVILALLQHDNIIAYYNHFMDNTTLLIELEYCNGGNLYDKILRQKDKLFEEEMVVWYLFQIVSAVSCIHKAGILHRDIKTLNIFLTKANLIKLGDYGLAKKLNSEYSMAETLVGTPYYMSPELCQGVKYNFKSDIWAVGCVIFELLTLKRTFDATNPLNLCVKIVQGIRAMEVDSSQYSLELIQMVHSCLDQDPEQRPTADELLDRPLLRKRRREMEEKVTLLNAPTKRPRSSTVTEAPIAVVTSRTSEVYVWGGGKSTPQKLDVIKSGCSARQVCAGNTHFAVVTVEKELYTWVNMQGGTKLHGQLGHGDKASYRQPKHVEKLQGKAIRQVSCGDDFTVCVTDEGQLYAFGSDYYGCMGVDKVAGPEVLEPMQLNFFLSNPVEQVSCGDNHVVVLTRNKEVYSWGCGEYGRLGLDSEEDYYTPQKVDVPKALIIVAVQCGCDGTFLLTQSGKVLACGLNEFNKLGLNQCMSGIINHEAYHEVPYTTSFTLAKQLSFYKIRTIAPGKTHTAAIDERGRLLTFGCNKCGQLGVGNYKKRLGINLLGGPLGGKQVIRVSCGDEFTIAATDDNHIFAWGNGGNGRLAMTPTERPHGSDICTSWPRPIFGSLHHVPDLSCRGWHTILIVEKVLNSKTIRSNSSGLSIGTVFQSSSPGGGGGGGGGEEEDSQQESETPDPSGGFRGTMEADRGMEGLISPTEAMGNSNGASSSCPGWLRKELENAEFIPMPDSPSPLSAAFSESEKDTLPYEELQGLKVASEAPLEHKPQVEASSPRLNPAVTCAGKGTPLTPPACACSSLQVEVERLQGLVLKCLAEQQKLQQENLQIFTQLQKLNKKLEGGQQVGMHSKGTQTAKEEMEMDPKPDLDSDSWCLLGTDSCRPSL

[5] = biological target: Tyrosine-protein kinase JAK2 (Homo sapiens, UniProt O60674); assay: Selectivity interaction (KinomeScan (DiscoverX)) EUB0000595a JAK2; details: at 10 µM
[6] = biological target: Ephrin type-A receptor 7 (Homo sapiens) (UniProt Q15375); assay: Selectivity interaction (KinomeScan (DiscoverX)) EUB0000045b EPHA7
[7] = biological target: T3, Interleukin-1 receptor-associated kinase 4 (Homo sapiens, UniProt Q9NWZ3); assay: Selectivity interaction (Kinase counterscreening (biochemical assay)) EUB0000604a IRAK4
T3 sequence (Q9NWZ3 whole entry): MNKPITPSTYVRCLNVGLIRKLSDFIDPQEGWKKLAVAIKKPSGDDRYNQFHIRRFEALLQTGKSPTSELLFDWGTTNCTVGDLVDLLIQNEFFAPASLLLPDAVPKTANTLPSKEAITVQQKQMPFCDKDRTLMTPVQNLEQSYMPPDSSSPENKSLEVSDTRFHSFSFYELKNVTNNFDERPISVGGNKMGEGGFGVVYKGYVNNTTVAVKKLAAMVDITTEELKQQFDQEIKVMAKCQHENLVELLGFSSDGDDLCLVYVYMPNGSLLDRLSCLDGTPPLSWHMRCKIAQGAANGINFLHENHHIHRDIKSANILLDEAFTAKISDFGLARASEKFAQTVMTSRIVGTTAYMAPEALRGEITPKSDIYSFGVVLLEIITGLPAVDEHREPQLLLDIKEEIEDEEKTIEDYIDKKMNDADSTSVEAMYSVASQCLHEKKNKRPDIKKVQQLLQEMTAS

Ephrin type-A receptor 7 (Homo sapiens), sequence (Q15375 28-998 limits assumed): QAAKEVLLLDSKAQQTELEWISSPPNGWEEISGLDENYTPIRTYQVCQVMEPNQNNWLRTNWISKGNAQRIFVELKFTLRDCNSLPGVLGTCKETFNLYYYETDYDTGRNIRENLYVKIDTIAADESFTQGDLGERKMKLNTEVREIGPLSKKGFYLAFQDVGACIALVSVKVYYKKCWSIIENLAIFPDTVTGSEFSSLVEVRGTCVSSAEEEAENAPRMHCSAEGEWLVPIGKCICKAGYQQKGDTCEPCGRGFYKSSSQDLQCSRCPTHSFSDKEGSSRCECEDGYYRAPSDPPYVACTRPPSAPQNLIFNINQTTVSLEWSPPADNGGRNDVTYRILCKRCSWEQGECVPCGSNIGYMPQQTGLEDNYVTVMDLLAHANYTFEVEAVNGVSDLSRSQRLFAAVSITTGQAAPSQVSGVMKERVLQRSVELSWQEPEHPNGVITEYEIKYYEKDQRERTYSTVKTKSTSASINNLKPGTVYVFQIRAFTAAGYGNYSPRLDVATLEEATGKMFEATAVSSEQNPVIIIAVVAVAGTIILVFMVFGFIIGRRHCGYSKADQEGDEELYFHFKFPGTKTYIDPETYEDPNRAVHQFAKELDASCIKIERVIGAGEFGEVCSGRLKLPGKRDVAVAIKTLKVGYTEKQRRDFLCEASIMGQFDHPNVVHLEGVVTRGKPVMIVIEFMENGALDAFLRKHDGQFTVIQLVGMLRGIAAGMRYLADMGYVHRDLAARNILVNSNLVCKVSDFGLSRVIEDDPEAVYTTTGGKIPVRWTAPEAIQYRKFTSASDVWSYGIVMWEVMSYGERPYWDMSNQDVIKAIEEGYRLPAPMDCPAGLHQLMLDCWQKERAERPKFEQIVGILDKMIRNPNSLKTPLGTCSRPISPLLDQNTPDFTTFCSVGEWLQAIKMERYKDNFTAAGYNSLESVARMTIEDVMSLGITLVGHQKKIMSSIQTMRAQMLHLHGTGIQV
Dual specificity mitogen-activated protein kinase kinase 1, sequence (Q02750 whole entry): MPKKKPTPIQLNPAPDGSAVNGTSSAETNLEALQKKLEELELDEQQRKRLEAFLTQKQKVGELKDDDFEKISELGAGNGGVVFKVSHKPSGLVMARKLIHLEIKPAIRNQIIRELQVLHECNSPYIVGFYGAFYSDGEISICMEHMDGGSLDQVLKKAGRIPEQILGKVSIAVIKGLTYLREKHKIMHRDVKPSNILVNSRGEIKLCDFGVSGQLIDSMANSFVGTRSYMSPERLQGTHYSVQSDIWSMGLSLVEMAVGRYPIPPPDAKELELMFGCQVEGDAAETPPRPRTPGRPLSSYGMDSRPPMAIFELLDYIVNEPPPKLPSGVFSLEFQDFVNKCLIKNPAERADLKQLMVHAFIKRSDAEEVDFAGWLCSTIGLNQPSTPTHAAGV
Tyrosine-protein kinase CSK (Homo sapiens), sequence (P41240 2-450 limits assumed): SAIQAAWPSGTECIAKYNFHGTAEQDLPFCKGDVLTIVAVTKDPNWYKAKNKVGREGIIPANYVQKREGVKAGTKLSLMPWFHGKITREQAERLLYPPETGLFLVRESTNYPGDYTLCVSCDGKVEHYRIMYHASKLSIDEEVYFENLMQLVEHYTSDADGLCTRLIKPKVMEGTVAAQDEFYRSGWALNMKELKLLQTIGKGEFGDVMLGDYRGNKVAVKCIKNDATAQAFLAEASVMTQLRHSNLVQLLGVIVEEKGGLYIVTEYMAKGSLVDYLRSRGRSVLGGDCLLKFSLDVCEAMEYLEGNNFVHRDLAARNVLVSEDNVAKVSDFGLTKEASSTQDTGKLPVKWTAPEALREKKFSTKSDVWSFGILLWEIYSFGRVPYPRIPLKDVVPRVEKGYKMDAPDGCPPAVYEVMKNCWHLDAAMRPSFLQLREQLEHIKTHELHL
Tyrosine-protein kinase JAK2, sequence (O60674 whole entry): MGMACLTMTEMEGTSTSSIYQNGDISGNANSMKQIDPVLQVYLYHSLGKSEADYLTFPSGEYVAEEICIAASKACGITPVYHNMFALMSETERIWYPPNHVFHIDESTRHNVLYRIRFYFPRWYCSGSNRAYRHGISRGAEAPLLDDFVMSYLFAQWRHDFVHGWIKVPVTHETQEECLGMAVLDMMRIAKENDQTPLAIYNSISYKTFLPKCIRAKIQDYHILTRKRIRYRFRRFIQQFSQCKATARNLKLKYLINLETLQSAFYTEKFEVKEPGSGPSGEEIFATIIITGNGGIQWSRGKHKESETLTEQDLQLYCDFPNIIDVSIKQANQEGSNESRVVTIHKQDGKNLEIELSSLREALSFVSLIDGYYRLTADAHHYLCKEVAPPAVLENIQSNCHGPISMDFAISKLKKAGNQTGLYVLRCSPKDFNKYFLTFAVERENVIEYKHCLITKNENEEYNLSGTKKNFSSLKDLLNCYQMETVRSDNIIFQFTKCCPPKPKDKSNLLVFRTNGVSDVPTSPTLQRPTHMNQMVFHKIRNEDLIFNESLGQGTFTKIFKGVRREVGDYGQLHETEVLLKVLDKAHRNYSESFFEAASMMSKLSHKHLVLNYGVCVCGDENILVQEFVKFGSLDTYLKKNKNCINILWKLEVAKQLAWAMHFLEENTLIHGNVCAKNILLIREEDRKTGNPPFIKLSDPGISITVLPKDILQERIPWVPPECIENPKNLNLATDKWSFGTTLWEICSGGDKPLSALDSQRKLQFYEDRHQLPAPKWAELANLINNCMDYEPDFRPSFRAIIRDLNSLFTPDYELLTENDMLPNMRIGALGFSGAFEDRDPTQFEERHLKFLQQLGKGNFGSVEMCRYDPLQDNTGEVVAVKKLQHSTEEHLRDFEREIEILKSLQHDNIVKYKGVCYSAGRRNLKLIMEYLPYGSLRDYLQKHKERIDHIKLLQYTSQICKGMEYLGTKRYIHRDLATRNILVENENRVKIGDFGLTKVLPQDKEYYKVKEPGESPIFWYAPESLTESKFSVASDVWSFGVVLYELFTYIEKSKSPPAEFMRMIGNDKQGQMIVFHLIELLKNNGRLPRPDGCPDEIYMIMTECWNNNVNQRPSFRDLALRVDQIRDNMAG

Compound: Nc1cnc(N2CCc3cc(S(=O)(=O)Nc4c(F)cc(Cl)cc4F)cc(N4CCCC4=O)c32)nc1 [TP-020n]
- % of control [1]: 99%

Compound: C=CC(=O)Nc1ccc(C(=O)Nc2[nH]nc3c2CN(C(=O)N[C@H](CN(C)C)c2ccccc2)C3(C)C)cc1
- % of engagement [2]: -7.3%

Compound: CC[C@@H]1[C@H](F)C(=O)N[C@@H]1COc1nccc2cc(C(N)=O)c(OC)cc12 [ZIMLOVISERTIB]
- % of inhibition [3]: 24.2%
- % of inhibition [4]: 8.3%

Compound: COCC(=O)NC/C=C/c1ccc2ncnc(Nc3ccc(Oc4ccc(C)nc4)c(C)c3)c2c1 [CP-724714]
- % of control [5]: 100%

Compound: C=CC(=O)Nc1cc(-n2c(=O)ccc3cnc4ccc(-c5ccc(NS(C)(=O)=O)cc5)cc4c32)ccc1C
- % of control ([6]; at 1 µM): 100%
- % of control ([6]; at 10 µM): 85%

Compound: Cc1cnc(Nc2ccc(F)cc2Cl)nc1-c1c[nH]c(C(=O)N[C@H](CO)c2cccc(Cl)c2)c1
- Ki [7]: > 4 µM
